Results taken from patent US12371454B2, “Cyclic peptide compound having Kras inhibitory action” (priority 2019, dated 2025).
Positions of bridges follow the written chain, without caps; N, C: chain ends. Non-standard residues stand in square brackets, D forms with d. Residues, ends and D or L forms follow the SMILES beside them. *: point of attachment. hPhe(3-Cl-4-CF3) = N[C@@H](CCc1ccc(C(F)(F)F)c(Cl)c1)C(=O)O; hPhe(3-F,4-CF3) = N[C@@H](CCc1ccc(C(F)(F)F)c(F)c1)C(=O)O; hPhe(4-CF3) = N[C@@H](CCc1ccc(C(F)(F)F)cc1)C(=O)O; NMePhe(4-Cl) = CN[C@@H](Cc1ccc(Cl)cc1)C(=O)O; Abu(4,4,4-F3) = N[C@@H](CC(F)(F)F)C(=O)O; NMeGly(cPent) = CN[C@H](C(=O)O)C1CCCC1; dαMeGly(allyl) = C=CC[C@@](C)(N)C(=O)O; Phe(2-F) = N[C@@H](Cc1ccccc1F)C(=O)O; NMeY = CN[C@@H](Cc1ccc(O)cc1)C(=O)O; NMeCha = CN[C@@H](CC1CCCCC1)C(=O)O; Azetidine(3,3-F2) = FC1(F)CN(*)C1; NMeF = CN[C@@H](Cc1ccccc1)C(=O)O; NMeD = CN[C@@H](CC(=O)O)C(=O)O; NMeL = CN[C@@H](CC(C)C)C(=O)O; NMeV = CN[C@H](C(=O)O)C(C)C; d(β3hA) = C[C@@H](N)CC(=O)O; NMeS = CN[C@@H](CO)C(=O)O; Pip = O=C(O)[C@@H]1CCCCN1; NMeA = CN[C@@H](C)C(=O)O; Nle = CCCC[C@H](N)C(=O)O; Piperidide = C1CCN(*)CC1; Pyrrolidide = C1CCN(*)C1; dNMeA = CN[C@H](C)C(=O)O; Ac5c = NC1(C(=O)O)CCCC1; Aze = O=C(O)[C@@H]1CCN1; Aib = CC(C)(N)C(=O)O; Isopentyl = CC(C)CC*; Sar = CNCC(=O)O

What follows are compounds tested against T1, Kras and SOS1 (biotin-tagged human Kras loaded with GDP, His-tagged human SOS1) (Homo sapiens, UniProt P01116, G12D) (assay: Protein-protein interaction inhibition between Kras and SOS1 (KrasGl2D-SOS PPI) using AlphaScreen). Conditions: AlphaScreen; biotin-tagged human Kras loaded with GDP, His-tagged human SOS1; read-out: KRAS G12D-SOS PPI IC50.
T1 construct: made in house; host or cells: E. coli (stated for Kras only)
T1 sequence (P01116 1-188 isoform P01116-2 G12D): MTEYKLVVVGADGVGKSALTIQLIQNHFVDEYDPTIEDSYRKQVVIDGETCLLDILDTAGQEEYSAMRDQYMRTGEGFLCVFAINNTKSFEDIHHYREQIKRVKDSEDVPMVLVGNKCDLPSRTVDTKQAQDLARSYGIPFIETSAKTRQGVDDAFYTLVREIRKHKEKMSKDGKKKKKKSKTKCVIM
Type: binding
Outline: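 Kras was produced in E. coli, purified, then loaded with GDP. It was paired via streptavidin acceptor beads with His-SOS1 held on nickel donor beads, and proximity signal at 520-620 nm was read after 680 nm illumination.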

Compared with CC[C@H](C)[C@@H]1NC(=O)[C@H](C)N(C)C(=O)C[C@@H](C)NC(=O)[C@H](CC(C)C)N(C)C(=O)C(C)(C)NC(=O)[C@@H]2CCCN2C(=O)[C@H](CCc2ccc(C(F)(F)F)cc2)NC(=O)CN(C)C(=O)[C@H](Cc2ccc(Cl)cc2)N(C)C(=O)CN(C)C(=O)CN(C)C1=O [Compound 664] (cyclo([Aib][NMeL][d(β3hA)][NMeA]I[Sar][Sar][NMePhe(4-Cl)][Sar][hPhe(4-CF3)]P)), CC[C@H](C)[C@@H]1NC(=O)[C@H](C)N(C)C(=O)C[C@@H](C(=O)N2CCCC2)NC(=O)[C@H](CC(C)C)N(C)C(=O)[C@H](COCCC(C)C)N(C)C(=O)[C@H](CC(C)C)NC(=O)[C@H](CCc2ccc(C(F)(F)F)cc2)NC(=O)CN(C)C(=O)[C@H](Cc2ccc(Cl)cc2)N(C)C(=O)CN(C)C(=O)CN(C)C1=O [Compound 675] ([NMeA]I[Sar][Sar][NMePhe(4-Cl)][Sar][hPhe(4-CF3)]L[NMeS](Isopentyl)[NMeL]D-Pyrrolidide; lactam N-11) is 2.4-fold higher in IC50: 25 nM for the first, 59 nM for the second. The first is the more potent here.

C=CC[C@@]1(C)NC(=O)[C@@H]2CCCN2C(=O)[C@H](CCc2ccc(C(F)(F)F)c(Cl)c2)NC(=O)CN(C)C(=O)[C@H](CC2CCCCC2)N(C)C(=O)CN(C)C(=O)CN(C)C(=O)[C@H]([C@@H](C)CC)NC(=O)[C@H](CC(C)C)N(C)C(=O)C[C@@H](C)NC(=O)[C@H](C(C)C)N(C)C1=O [Compound 665] (cyclo(I[Sar][Sar][NMeCha][Sar][hPhe(3-Cl-4-CF3)]P[dαMeGly(allyl)][NMeV][d(β3hA)][NMeL])) and CC[C@H](C)[C@@H]1NC(=O)[C@H](C)N(C)C(=O)C[C@@H](C)NC(=O)[C@H](C(C)C)N(C)C(=O)C2(CCCC2)NC(=O)[C@@H]2CCCN2C(=O)[C@H](CCc2ccc(C(F)(F)F)c(Cl)c2)NC(=O)[C@H]2CCCN2C(=O)[C@H](CC2CCCCC2)N(C)C(=O)[C@@H]2CCCN2C(=O)CN(C)C1=O [Compound 666] (cyclo([Ac5c][NMeV][d(β3hA)][NMeA]I[Sar]P[NMeCha][dP][hPhe(3-Cl-4-CF3)]P)) are within 1.5-fold of each other in IC50: 37 nM for the first, 25 nM for the second.

Going from CC[C@H](C)[C@@H]1NC(=O)[C@@H]2CCCCN2C(=O)C[C@@H](C(=O)N2CCCCC2)N(C)C(=O)[C@H](C(C)C)N(C)C(=O)C2(CCCC2)NC(=O)[C@@H]2CCCN2C(=O)[C@H](CCc2ccc(C(F)(F)F)c(F)c2)NC(=O)CN(C)C(=O)[C@H](CC2CCCCC2)N(C)C(=O)CN(C)C(=O)CN(C)C1=O [Compound 670] ([Pip]I[Sar][Sar][NMeCha][Sar][hPhe(3-F,4-CF3)]P[Ac5c][NMeV][NMeD]-Piperidide; lactam N-11) to CC[C@H](C)[C@@H]1NC(=O)[C@H](C)N(C)C(=O)C[C@@H](C(=O)N2CCCCC2)N(C)C(=O)[C@H](C(C)C)N(C)C(=O)[C@H](CC(F)(F)F)NC(=O)[C@H](CC(=O)N2CC(F)(F)C2)N(C)C(=O)[C@H](CCc2ccc(C(F)(F)F)c(Cl)c2)NC(=O)CN(C)C(=O)[C@H](CC2CCCCC2)N(C)C(=O)CN(C)C(=O)CN(C)C1=O [Compound 679] ([NMeA]I[Sar][Sar][NMeCha][Sar][hPhe(3-Cl-4-CF3)][NMeD](Azetidine(3,3-F2))[Abu(4,4,4-F3)][NMeV][NMeD]-Piperidide; lactam N-11), the IC50 rises from 5.1 nM to 37 nM (7.3-fold).

First: CC[C@H](C)[C@@H]1NC(=O)[C@H](C)N(C)C(=O)C[C@@H](C)NC(=O)[C@H](C2CCCC2)N(C)C(=O)C2(CCCC2)NC(=O)[C@@H]2CCCN2C(=O)[C@H](CCc2ccc(C(F)(F)F)c(Cl)c2)NC(=O)[C@@H](C)N(C)C(=O)[C@H](Cc2ccccc2)N(C)C(=O)[C@@H]2CCN2C(=O)[C@H](C)N(C)C1=O [Compound 671] (cyclo([Ac5c][NMeGly(cPent)][d(β3hA)][NMeA]I[NMeA][Aze][NMeF][dNMeA][hPhe(3-Cl-4-CF3)]P))
Second: CCCC[C@@H]1NC(=O)[C@H](Cc2ccccc2F)NC(=O)CN(C)C(=O)[C@H](Cc2ccc(OC)cc2)N(C)C(=O)CN(C)C(=O)CN(C)C(=O)[C@H]([C@@H](C)CC)NC(=O)[C@H](CC(C)C)N(C)C(=O)C[C@@H](C(=O)N2CCCCC2)N(C)C(=O)[C@H](CC(C)C)NC(=O)[C@H](Cc2ccc(OC)cc2)N(C)C1=O [Compound 681] ([NMeL]I[Sar][Sar][NMeY](Me)[Sar][Phe(2-F)][Nle][NMeY](Me)L[NMeD]-Piperidide; lactam N-11)
The IC50 of the first is 8.8-fold higher: 52 nM for the first, 5.9 nM for the second. The second is the more potent here.
